Experimental data taken from US20240374595A1, “SUBSTITUTED 1,1'-BIPHENYL COMPOUNDS, ANALOGUES THEREOF, AND METHODS USING SAME” (Arbutus Biopharma Corporation, priority 2018, published 2024).

Target: PD-L1 (Homo sapiens (Human), UniProt Q9NZQ7)
Assay: PD-L1 HTRF assay (PD-1/PD-L1 interaction)
Format: binding
Settings: PD-L1 His 6 nM, PD-1 Fc 6 nM; inhibitors 3-fold diluted from 20 μM
Method: PD-L1 small molecule inhibitors were diluted by 3-fold starting from 20 μM and a final concentration of 0.001 μM and added to the well. PD-1 Fc protein was added at the final concentration of 6 nM. PD-L1 His protein, PD-L1 small molecule inhibitors, and PD1 Fc proteins were added to the well in this order, with each 5 μl volume, and were incubated for 15 minutes at room temperature. […] The plate was read using PerkinElmer Envision plate reader and data was analyzed by Prism 6 software.

Sequence of PD-L1 (Q9NZQ7 19-238): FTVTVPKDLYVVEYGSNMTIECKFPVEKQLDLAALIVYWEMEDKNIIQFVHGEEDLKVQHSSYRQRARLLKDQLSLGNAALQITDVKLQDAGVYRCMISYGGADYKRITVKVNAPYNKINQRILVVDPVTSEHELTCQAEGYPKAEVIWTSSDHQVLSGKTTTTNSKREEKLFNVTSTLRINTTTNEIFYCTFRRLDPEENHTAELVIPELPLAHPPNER

Compound	IC50 [nM]
Cc1c(COc2cc(OCc3cncc(C#N)c3)c(C3=NCC(O)CN3)cc2Cl)cccc1-c1cccc(COc2cc(OCc3cncc(C#N)c3)c(C3=NCC(O)CN3)cc2Cl)c1C (stereo not drawn) [Example 28, 5-[[4-chloro-5-[[3-[3-[[2-Chloro-5-[(5-cyano-3-pyridyl)methoxy]-4-(5-hydroxy-1,4,5,6-tetrahydropyrimidin-2-yl)phenoxy]methyl]-2-methyl-phenyl]-2-methyl-phenyl]methoxy]-2-(5-hydroxy-1,4,5,6-tetrahydropyrimidin-2-yl)phenoxy]methyl]pyridine-3-carbonitrile]	6.7
COc1cc(OCc2cccc(-c3cccc(COc4cc(OC)c(CN5CCCC[C@H]5C(=O)O)cc4Cl)c3C)c2C)c(Cl)cc1CO [Example 30, (2S)-1-[[5-chloro-4-[[3-[3-[[2-chloro-4-(hydroxymethyl)-5-methoxy-phenoxy]methyl]-2-methyl-phenyl]-2-methyl-phenyl]methoxy]-2-methoxy-phenyl]methyl]piperidine-2-carboxylic acid]	4
COc1cc(OCc2cccc(-c3cccc(COc4cc(OC)c(CNCCO)cc4Cl)c3C)c2C)c(Cl)cc1CNCCO [Example 31, 2,2′-((((((2,2′-Dimethyl-[1,1′-biphenyl]-3,3′-diyl)bis(methylene))bis(oxy))bis (5-chloro-2-methoxy-4,1-phenylene))bis(methylene))bis(azanediyl))bis(ethan-1-ol)]	1
Cc1c(NC(=O)c2ccc(CO)cn2)cccc1-c1cccc(NC(=O)c2ccc(CO)cn2)c1C [Example 32, 5-(Hydroxymethyl)-N-[3-[3-[[5-(hydroxymethyl)pyridine-2-carbonyl]amino]-2-methyl-phenyl]-2-methyl-phenyl]pyridine-2-carboxamide]	3.2
Cc1c(NC(=O)c2ccc(CNCCO)cn2)cccc1-c1cccc(OCCCN2CCC(O)CC2)c1C [Example 33, 5-[(2-hydroxyethylamino)methyl]-N-[3-[3-[3-(4-hydroxy-1-piperidyl)propoxy]-2-methyl-phenyl]-2-methyl-phenyl]pyridine-2-carboxamide]	3.7
Cc1c(NC(=O)c2ccc(CNCCO)cn2)cccc1-c1cccc(NC(=O)c2ccc(CNCCO)cn2)c1C [Example 34, 5-[(2-Hydroxyethylamino)methyl]-N-[3-[3-[[5-[(2-hydroxyethylamino)methyl]pyridine-2-carbonyl]amino]-2-methyl-phenyl]-2-methyl-phenyl]pyridine-2-carboxamide]	1
Cc1c(NC(=O)c2ccc(C3=NCCC(C(=O)O)N3)cn2)cccc1-c1cccc(NC(=O)c2ccc(C3=NCCC(C(=O)O)N3)cn2)c1C (stereo not drawn) [Example 35, 2-[6-[[3-[3-[[5-(4-Carboxy-1,4,5,6-tetrahydropyrimidin-2-yl)pyridine-2-carbonyl]amino]-2-methyl-phenyl]-2-methyl-phenyl]carbamoyl]-3-pyridyl]-1,4,5,6-tetrahydropyrimidine-4-carboxylic acid]	0.3
Cc1c(NC(=O)c2ccc(CNCCO)cn2)cccc1-c1cccc(NC(=O)c2ccc(CN3CC[C@@H](O)C3)cn2)c1C [Example 37, (R)-5-(((2-hydroxyethyl)amino)methyl)-N-(3′-(5-((3-hydroxypyrrolidin-1-yl)methyl)picolinamido)-2,2′-dimethyl-[1,1′-biphenyl]-3-yl)picolinamide]	0.8
Cc1c(NC(=O)c2ccc(CNCCO)cn2)cccc1-c1cccc(NC(=O)c2ccc(CN(C)CCO)cn2)c1C [Example 38, 5-(((2-hydroxyethyl)-(methyl)amino)methyl)-N-(3′-(5-(((2-hydroxyethyl)amino)methyl)picolinamido)-2,2′-dimethyl-[1,1′-biphenyl]-3-yl)picolinamide]	0.9
